Patent publication US8143288B2, “Inhibitors of HCV replication” (priority 2005, dated 2012)

System: HCV 1b-377-neo replicon cells
Assay: HCV replicon FRET assay
Type: cell-based
Conditions: Hepatitis C virus; HCV replicon; read-out: Activity (EC50)
Description: The HCV replicon cell line was isolated from colonies as described by Lohman, et. al. (Science 1999, 285, 110-113, expressly incorporated by reference in its entirety) and used for all experiments. The HCV replicon has the nucleic acid sequence set forth in EMBL Accession No.: AJ242652, the coding sequence of which is from nt 1801 to 7758.
The coding sequence of the published HCV replicon was synthesized by Operon Technologies, Inc. (Alameda, Calif.), and the fall-length replicon was then assembled in plasmid pGem9zf(+) (Promega, Madison, Wis.) using standard molecular biology techniques. The replicon consists of (i) the HCV 5′ UTR fused to the first 12 amino acids of the capsid protein, (ii) the neomycin phosphotransferase gene (neo), (iii) the IRES from encephalomyocarditis virus (EMCV), and (iv) HCV NS3 to NS5B genes and the HCV 3′ UTR. Plasmid DNAs were linearized with ScaI and RNA transcripts were synthesized in vitro using the T7 MegaScript transcription kit (Ambion, Austin, Tex.) according to manufacturer's directions.
To generate cell lines, 4×10^6 Huh-7 cells (kindly provided by R. Bartenschlager and available from Health Science Research Resources Bank, Japan Health Sciences Foundation) were electroporated (GenePulser System, Bio-Rad) with 10 micrograms(“μg”) of RNA transcript and plated into 100-mm dishes. After 24 hours, selective media containing 1.0 milligrams/milliliter (“mg/mL”) G418 was added and media was changed every 3 to 5 days. […] These cell lines were maintained at 37° C., 5% CO2, 100% relative humidity in DMEM (Cat#11965-084) Gibco-BRL, Rockville, Md., with 10% heat inactivated calf serum (Sigma), 10 mL of 100× penicillin/streptomycin (Cat#15140-122) Gibco-BRL, Rockville, Md., Geneticin (Cat#10131-027) Gibco-BRL, Rockville, Md. at 1 mg/mL. One of the cell lines (deposited as ATCC Accession No. PTA-4583 in the American Type Culture Collection) which had approximately 3,000 copies of HCV replicon RNA/cell was used for development of the assay (HCV 1b-377-neo replicon cells).
To perform the HCV FRET screening assay, 96-well cell culture plates were used. The FRET peptide (Anaspec, Inc., San Jose, Calif.) (Taliani et al., Anal. Biochem. 1996, 240, 60-67, hereby incorporated by reference in its entirety) contains a fluorescence donor, EDANS, near one end of the peptide and an acceptor, DABCYL, near the other end. The fluorescence of the peptide is quenched by […] resonance energy transfer (RET) between the donor and the acceptor, but as the NS3 protease cleaves the peptide the products are released from RET quenching and the fluorescence of the donor becomes apparent.
The assay reagent was made as follows: 5X luciferase cell culture lysis (Cat#E153A, Promega, Madison, Wis.) diluted to 1X with dH2O, NaCl added to […] final, the FRET peptide diluted to 20 micromolar (“μM”) final from a 2 mM stock. HCV 1b-377-neo replicon cells were trypsinized, placed into each well of a 96-well plate and allowed to attach overnight. The next day, the test compounds were added to columns 1 through 10; column 11 was media plus DMSO only, and column 12 contained a titration of interferon or an HCV specific inhibitor as a control (1000 units for A12, B12, 100 units for C12, D12, 10 units for E12, F12 and 1 unit for G12, H12). […] In addition, naïve Huh-7 cells could also be used to replace wells A12 and B12 as a background control.
At subsequent various times (typically 72 hours), 10% final volume Alamar blue (Cat#00-100, Trek Diagnostics, Cleveland, Ohio) was added to each well. The plates were returned to the incubator for 5 hours and then read in the Cytoflour (PE Biosystems) to determine Alamar blue conversion in each well as a measure of cellular toxicity.

SMILES: CCC(=O)c1ccccc1C(=O)N1CCC[C@H]1C(=O)Nc1ccc(/C=C/c2ccc(NC(=O)[C@@H]3CCCN3C(=O)c3ccccc3C(=O)CC)cc2)cc1 [Example 136]
- EC50: 1 to 10 µM

SMILES: O=C(Nc1ccc(/C=C/c2ccc(NC(=O)[C@@H]3CCCN3C(=O)[C@H]3CCCO3)cc2)cc1)C1CC1 [Example 260]
- EC50: 0.1 to 1 µM

SMILES: O=C(NCc1ccccc1)Nc1ccc(/C=C/c2ccc(NC(=O)[C@@H]3CCCN3C(=O)Cc3ccccc3)cc2)cc1 [Example 250C]
- EC50: 1 to 10 µM

SMILES: O=C(Nc1ccc(/C=C/c2ccc(NC(=O)[C@@H]3C=CCN3C(=O)Cc3cccnc3)cc2)cc1)[C@@H]1C=CCN1C(=O)Cc1cccnc1 [Example 218]
- EC50: 0.0001 to 0.09 µM

SMILES: O=C(Nc1ccc(/C=C/c2ccc(NC(=O)[C@@H]3CCCN3C(=O)c3n[nH]c4ccccc34)cc2)cc1)[C@@H]1CCCN1C(=O)c1n[nH]c2ccccc12 [Example 212]
- EC50: 0.0001 to 0.09 µM

SMILES: O=C(NC1CCCC1)O[C@@H]1C[C@@H](C(=O)Nc2ccc(/C=C/c3ccc(NC(=O)[C@@H]4C[C@@H](O)CN4C(=O)OCc4ccccc4)cc3)cc2)N(C(=O)OCc2ccccc2)C1 [Example 248]
- EC50: 1 to 10 µM

SMILES: CCO[C@H]1C[C@@H](C(=O)Nc2ccc(/C=C/c3ccc(NC(=O)[C@@H]4C[C@H](OCC)CN4C(=O)OCc4ccccc4)cc3)cc2)N(C(=O)OCc2ccccc2)C1 [Example 18]
- EC50: 1 to 10 µM

SMILES: O=C(Nc1ccc(/C=C/c2ccc(NC(=O)[C@@H]3CCCN3C(=O)c3ccsc3)cc2)cc1)[C@@H]1CCCN1C(=O)c1ccsc1 [Example 68]
- EC50: 0.0001 to 0.09 µM

SMILES: CC(C)c1sc(Cl)nc1C(=O)N1CCC[C@H]1C(=O)Nc1ccc(/C=C/c2ccc(NC(=O)[C@@H]3CCCN3C(=O)c3nc(Cl)sc3C(C)C)cc2)cc1 [Example 186]
- EC50: 0.1 to 1 µM

SMILES: CCc1cccc(CC)c1C(=O)N1CCC[C@H]1C(=O)Nc1ccc(/C=C/c2ccc(NC(=O)[C@@H]3CCCN3C(=O)c3c(CC)cccc3CC)cc2)cc1 [Example 205]
- EC50: 1 to 10 µM

SMILES: O=C(Nc1ccc(/C=C/c2ccc(NC(=O)[C@@H]3CCCN3C(=O)c3nccc4ccccc34)cc2)cc1)[C@@H]1CCCN1C(=O)c1nccc2ccccc12 [Example 300]
- EC50: 0.0001 to 0.09 µM

SMILES: O=C(Nc1ccc(/C=C/c2ccc(NC(=O)[C@@H]3CCCN3C(=O)Cc3ccccc3)cc2)cc1)c1ccccc1Oc1ccccc1 [Example 266]
- EC50: 1 to 10 µM

SMILES: O=C(Nc1ccc(/C=C\c2ccc(NC(=O)[C@@H]3CCCN3C(=O)OCc3ccccc3)cc2)cc1)[C@@H]1CCCN1C(=O)OCc1ccccc1 [Example 6]
- EC50: 0.0001 to 0.09 µM

SMILES: O=C(Nc1ccc(/C=C/c2ccc(NC(=O)[C@@H]3CCCN3S(=O)(=O)c3ccccc3OC(F)(F)F)cc2)cc1)[C@@H]1CCCN1S(=O)(=O)c1ccccc1OC(F)(F)F [Example 280]
- EC50: 1 to 10 µM

SMILES: CC(C)(C)C(=O)N1CCC[C@H]1C(=O)Nc1ccc(/C=C/c2ccc(NC(=O)[C@@H]3CCCN3C(=O)C(C)(C)C)cc2)cc1 [Example 53]
- EC50: 0.0001 to 0.09 µM

SMILES: CC(C)CC(=O)N1CCC[C@H]1C(=O)Nc1ccc(/C=C/c2ccc(NC(=O)[C@@H]3CCCN3C(=O)CC(C)C)cc2)cc1 [Example 40]
- EC50: 0.1 to 1 µM

SMILES: CCOc1ncccc1C(=O)N1CCC[C@H]1C(=O)Nc1ccc(/C=C/c2ccc(NC(=O)[C@@H]3CCCN3C(=O)c3cccnc3OCC)cc2)cc1 [Example 160]
- EC50: 1 to 10 µM

SMILES: CC(C)C(=O)N1CCC[C@H]1C(=O)Nc1ccc(/C=C/c2ccc(NC(=O)[C@@H]3CCCN3C(=O)C(C)C)cc2)cc1 [Example 39]
- EC50: 0.1 to 1 µM

SMILES: CCC(=O)N1CCC[C@H]1C(=O)Nc1ccc(/C=C/c2ccc(NC(=O)[C@@H]3CCCN3C(=O)CC)cc2)cc1 [Example 46]
- EC50: 0.1 to 1 µM

SMILES: CN(C(=O)[C@@H]1CCCN1C(=O)OCc1ccccc1)c1ccc(/C=C/c2ccc(N(C)C(=O)[C@@H]3CCCN3C(=O)OCc3ccccc3)cc2)cc1 [Example 244]
- EC50: 1 to 10 µM

SMILES: CCOC(=O)N1CCC[C@H]1C(=O)Nc1ccc(/C=C/c2ccc(NC(=O)[C@@H]3CCCN3C(=O)C3(C(N)=O)CC3)cc2)cc1 [Example 56]
- EC50: 0.1 to 1 µM

SMILES: COC(=O)N1CCC[C@H]1C(=O)Nc1ccc(/C=C/c2ccc(NC(=O)[C@@H]3CCCN3C(=O)OC)cc2)cc1 [Example 52]
- EC50: 0.1 to 1 µM

SMILES: Cc1onc(-c2ccccc2)c1C(=O)N1CCC[C@H]1C(=O)Nc1ccc(/C=C/c2ccc(NC(=O)[C@@H]3CCCN3C(=O)c3c(-c4ccccc4)noc3C)cc2)cc1 [Example 204]
- EC50: 0.0001 to 0.09 µM

SMILES: CC(C)N(C(=O)N1CCC[C@H]1C(=O)Nc1ccc(/C=C/c2ccc(NC(=O)[C@@H]3CCCN3C(=O)N(C(C)C)C(C)C)cc2)cc1)C(C)C [Example 290]
- EC50: 0.0001 to 0.09 µM

SMILES: CC(C)(C)O[C@@H]1C[C@@H](C(=O)Nc2ccc(/C=C/c3ccc(NC(=O)[C@@H]4C[C@@H](OC(C)(C)C)CN4C(=O)Cc4cccnc4)cc3)cc2)N(C(=O)Cc2cccnc2)C1 [Example 131]
- EC50: 0.0001 to 0.09 µM

SMILES: COc1ccc(C(=O)N2CCC[C@H]2C(=O)Nc2ccc(/C=C/c3ccc(NC(=O)[C@@H]4CCCN4C(=O)c4ccc(OC)nc4OC)cc3)cc2)c(OC)n1 [Example 193]
- EC50: 1 to 10 µM

SMILES: CN(C)c1cc(C(=O)N2CCC[C@H]2C(=O)Nc2ccc(/C=C/c3ccc(NC(=O)[C@@H]4CCCN4C(=O)c4cc(N(C)C)c5ccccc5n4)cc3)cc2)nc2ccccc12 [Example 297]
- EC50: 0.0001 to 0.09 µM

SMILES: O=C(Nc1ccc(/C=C/c2ccc(NC(=O)[C@@H]3CCCN3C(=O)Cc3ccccc3F)cc2)cc1)[C@@H]1CCCN1C(=O)Cc1ccccc1F [Example 106]
- EC50: 0.0001 to 0.09 µM

SMILES: CSCC(=O)N1CCC[C@H]1C(=O)Nc1ccc(/C=C/c2ccc(NC(=O)[C@@H]3CCCN3C(=O)c3cccnc3)cc2)cc1 [Example 86]
- EC50: 0.0001 to 0.09 µM

SMILES: O=C(Cc1ccccc1)Nc1ccc(/C=C/c2ccc(NC(=O)[C@@H]3CCCN3C(=O)Cc3ccccc3)cc2)cc1 [Example 254]
- EC50: 0.1 to 1 µM

SMILES: Cc1cccc(C(=O)N2CCC[C@H]2C(=O)Nc2ccc(/C=C/c3ccc(NC(=O)[C@@H]4CCCN4C(=O)c4cccc(C)n4)cc3)cc2)n1 [Example 114]
- EC50: 0.1 to 1 µM

SMILES: O=C(Nc1ccc(/C=C/c2ccc(NC(=O)[C@@H]3CCCN3C(=O)C3Cc4ccccc43)cc2)cc1)[C@@H]1CCCN1C(=O)C1Cc2ccccc21 (some centres unmarked) [Example 116]
- EC50: 1 to 10 µM

SMILES: O=C(Nc1ccc(/C=C/c2ccc(NC(=O)[C@@H]3CCCN3C(=O)OCc3ccccc3)cc2)cc1)C1CC1 [Example 293]
- EC50: 0.1 to 1 µM

SMILES: Cc1nc(C(F)(F)F)ccc1C(=O)N1CCC[C@H]1C(=O)Nc1ccc(/C=C/c2ccc(NC(=O)[C@@H]3CCCN3C(=O)c3ccc(C(F)(F)F)nc3C)cc2)cc1 [Example 194]
- EC50: 0.1 to 1 µM

SMILES: CC(C)c1scnc1C(=O)N1CCC[C@H]1C(=O)Nc1ccc(/C=C/c2ccc(NC(=O)[C@@H]3CCCN3C(=O)c3ncsc3C(C)C)cc2)cc1 [Example 190]
- EC50: 0.1 to 1 µM

SMILES: O=C(Nc1ccc(/C=C/c2ccc(NC(=O)[C@@H]3CCCN3C(=O)[C@H]3CCCO3)cc2)cc1)C1CCC1 [Example 262]
- EC50: 0.1 to 1 µM

SMILES: CN(C)[C@@H](C(=O)N1CCC[C@H]1C(=O)Nc1ccc(/C=C/c2ccc(NC(=O)[C@@H]3CCCN3C(=O)[C@@H](c3ccccc3)N(C)C)cc2)cc1)c1ccccc1 [Example 296]
- EC50: 0.0001 to 0.09 µM

SMILES: CCC(=O)N1CCC[C@H]1C(=O)Nc1ccc(/C=C/c2ccc(NC(=O)[C@@H]3CCCN3C(=O)c3cccnc3)cc2)cc1 [Example 90]
- EC50: 0.0001 to 0.09 µM

SMILES: Cc1ccccc1C(=O)N1CCC[C@H]1C(=O)Nc1ccc(/C=C/c2ccc(NC(=O)[C@@H]3CCCN3C(=O)c3ccccc3C)cc2)cc1 [Example 125]
- EC50: 0.1 to 1 µM

SMILES: [N-]=[N+]=Nc1ccc(C(=O)N2CCC[C@H]2C(=O)Nc2ccc(/C=C/c3ccc(NC(=O)[C@@H]4CCCN4C(=O)Cc4ccccc4)cc3)cc2)cc1 [Example 118]
- EC50: 0.0001 to 0.09 µM

SMILES: O=C(Nc1ccc(/C=C/c2ccc(NC(=O)[C@@H]3CCCN3C(=O)CC3CC3)cc2)cc1)[C@@H]1CCCN1C(=O)CC1CC1 [Example 26]
- EC50: 0.0001 to 0.09 µM
